Laboratory results from patent US10881642B2, “Autophagy enhancer and use thereof” (Industry-Academic Cooperation Foundation, Yonsei University, priority 2016, dated 2021).

Key:
[1] = tested on: HeLa cells; experiment: Viability of Hela cells; assay type: cell-based; settings: 50-100 μM, 48 hrs
Procedure: FIG. 10 is the result of the experiments using compound of formula 2 (hereinafter referred to as MSL-7) of the present disclosure as an autophagic enhancer. FIG. 10A is the result of immuneblot using the antibodies indicated using Hela cells treated with MSL or MSL-7. FIG. 10B is the result of measuring the viability of Hela cells treated with vehicle control or various concentration of MSL-7 (50-100 μM) for 48 hrs. FIG. 10C is the result of DAPI stained nuclei of TFEB-GFP HeLa cells which were treated with vehicle control or MSL-7 for 4 hrs. The graph indicates the percentage of TFEB translocated into the nuclei. Error bars, S.D. *, P<0.05; **, P<0.01; ***, P<0.001.
Screening of autophagy enhancer. […] Firefly luciferase was determined after mixing 5 μl of lysate with 25 μl of Luciferase Assay Reagent II. Renilla luciferase was then determined after further addition of 20 ul of Stop&Glo Reagent. […] Cytotoxicity was determined by the measurement of LDH release in cell culture media using the LDH kit (Roche), according to the protocol from the manufacturer. […] Imaging and image quantification. […] Formation of acidic vesicular organelles was quantitated by staining the cells with acridine orange (Invitrogen, 5 ug/ml, 10 min). […] Cells or tissues were solubilized in lysis buffer supplemented with protease and phosphatase inhibitors and protein concentration was measured by the Bradford method. […]

[2] = tested on: ob/ob mice; experiment: In vivo autophagic flux and TFEB-related gene expression in liver
Procedure: FIG. 7A is the result of the experiment in which ob/ob mice were peritoneally injected with 30 mg/kg leupeptin and then after 1 hr, vehicle control or MSL compound were peritoneally administered. Three hours post administration, the liver lysates were prepared and immunoblotted. The numbers above the bands indicates fold changes normalized to beta actin bands. FIG. 7B indicates the concentration of mRNA of TFEB related genes measured by performing RT-PCT using a total RNA isolated from liver sample treated same as above except that Leupeptin was not administered. The values represent mean±S.D of fold changes compared to control mice (vehicle control) obtained from three mice.
Screening of autophagy enhancer. […] Luciferase assay. Firefly and Renilla luciferase assays were conducted using the Dual-Luciferase Reporter Assay System (Promega) according to the manufacturer's recommendation. In brief, cells were lysed in 1× lysis buffer and subjected to a single round of freezing/thawing. Firefly luciferase was determined after mixing 5 μl of lysate with 25 μl of Luciferase Assay Reagent II. Renilla luciferase was then determined after further addition of 20 ul of Stop&Glo Reagent. Cell culture and media and drugs treatment. […] Cytotoxicity was determined by the measurement of LDH release in cell culture media using the LDH kit (Roche), according to the protocol from the manufacturer. […] Imaging and image quantification. […] Formation of acidic vesicular organelles was quantitated by staining the cells with acridine orange (Invitrogen, 5 ug/ml, 10 min). […] Cells or tissues were solubilized in lysis buffer supplemented with protease and phosphatase inhibitors and protein concentration was measured by the Bradford method. Ten to 30 micrograms were loaded on 4-12% Bis-Tris gel (NUPAGE, Invitrogen) or 8-15% SDS-PAGE, transferred to PVDF membranes and analyzed by western blot using the ECL method (Pierce). […] Protein levels were quantified by using ImageJ software analysis. […]

Structure (SMILES) | cellular toxicity [1] | autophagic activity in the liver measured after leupeptin administration ([2]; after 8 weeks of administration) | LC3-I to -II conversion in the liver ([2]; after pretreatment with leupeptin) | expression of TFEB-regulated genes ([2]; liver, compared to controls)
COc1oc(-c2ccccc2Cl)nc1S(=O)(=O)c1ccccc1 [MSL-7, 2-(2-chlorophenyl)-5-methoxy-4-(phenylsulfonyl) oxazole] | without cellular toxicity | – | – | –
CSc1oc(-c2ccccc2)nc1S(=O)(=O)c1ccc(F)cc1 [MSL] | – | increased | increased | significantly higher
